We go through 1 compound from patent US9988371B2, “Benzimidazole analogues and related methods” (The Arizona Board of Regents, on Behalf of the University …, priority 2014, dated 2018).

pIC50: −log10 of the molar value. Like-named read-outs stand apart in the source and are kept apart here. Where only a bound is given, the exact number is not on record here.

In data set [1] the test system is LC-2/ad cells (NSCLC expressing CCDC6-RET). Put plainly: Growth curve proliferation assay, LC-2/ad cells. The data set is classed as cell-based. The following applies: Homo sapiens, last day of growth curves. On the procedure: FIG. 5: Effects exerted by indicated concentrations of Pz-1 or vehicle (NT: not treated) on proliferation of TT (human MTC cell line expressing RET/C634W), Lc-2/ad (human NSCLC expressing CCDC6-RET) and Nthy-ori-3-1 (thyroid non-transformed) cell lines. Data are the mean±SD (Standard Deviation) of one experiment performed in triplicate. Bottom, right) Growth inhibition IC50 of Pz-1 for the different cell lines: 95% CI (confidence intervals) are indicated in brackets. Cells were seeded in triplicate in 60-mm dishes and kept in 5% (Nthy-ori-3-1) or 10% (TT and Lc-2/ad) fetal calf serum. The day after plating, different concentrations of Pz-1 or vehicle were added to the medium and changed every 2-3 days. Cells were counted every 2-3 days and cell numbers were reported±SD (Standard Deviation). IC50 doses (with Confidence Intervals) were calculated through a curve fitting analysis from the last day of growth curves using the PRIZM software program (Graphpad Software Inc).
Nthy-ory-3-1 and TTcells were seeded in 60-mm dishes. […] Cells were counted every 2-3 days. […] Parental and RET/PTC-expressing Ba/F3 were kept in 10% fetal calf serum in 6-multi wells and counted every day for 4 consecutive days, changing media every 2 days. […] IC50 doses were calculated through a curve fitting analysis from the last day of growth curves using the PRISM software program (Graphpad Software Inc). […]

Another data set has as its target VEGFR2 (Homo sapiens, UniProt P35968). In words: VEGFR2 biochemical assay. The following applies: exact potency beyond measurable limit. As to the method: (§1) Suitable screening assays for RET and VEGFR2 small molecule kinase inhibitors (from a kinase-directed fragment (KDF) library) were established. The RET kinase assay utilizes an EZ Reader Electrophoresis Mobility Chip Instrument (Caliper Life Science). In the assay, 2 nM recombinant RET enzyme (Invitrogen) is pre-incubated with a small molecule inhibitor or control buffer for 30 min to allow the Type-II kinase inhibitor to trap the DFG-out conformation to which the inhibitors bind. This class of inhibitors is indirectly competitive with ATP, and slow binding kinetics (low kd) allow the inhibitors to appear non-competitive and pseudo-irreversible in nature. Because of the non-competitive nature of these inhibitors, a more biologically relevant concentration of ATP substrate (200 μM) was incorporated in this assay. After 30 min of pre-incubation, a substrate mix containing […], 20 mM MgCl2 and 1.5 μM fluorescently labeled RET substrate peptide (Caliper LS, peptide 22; Perkin Elmer, USA) was added. The conversion level of the RET substrate peptide was then determined utilizing the EZ Reader instrument. Similarly, VEGFR2 and RET/V804M kinase assays have also been established using the same peptide substrate.
The VEGFR-2 assay was identical to the RET assay except that 1-2 nM recombinant VEGFR-2 was used instead of RET.

The test system of another data set is parental Ba/F3 cells. In words: Proliferation of parental Ba/F3 cells. The data set is classed as cell-based, murine. The following applies: parental Ba/F3, with IL-3. As to the method:
(§2) FIG. 6: Activity of Pz-1 on NCOA4-RET oncogene-driven IL-3-independent proliferation of murine Ba/F3 cells. […] Ba/F3 and Ba/F3 NCOA4-RET cells were incubated with vehicle (NT) or the indicated concentration of Pz-1 in complete medium and counted at different time points. Data are the mean±SD of one experiment performed in triplicate. Murine interleukin-3 (IL-3) dependent pro-B Ba/F3 cells were from ATCC. Ba/F3 cells stably expressing NCOA4-RET (RET/PTC3) protein were generated by transfecting long isoform (RET-51) of NCOA4-RET by electroporation. Parental and Ba/F3-NCOA4-RET cells were cultured in RPMI 1640 with 10% FBS; parental cells required also 10 ng/ml IL-3. IC50 doses (with Confidence Intervals) are indicated.
(§3) Nthy-ory-3-1 and TTcells were seeded in 60-mm dishes. Cells were kept in 2% (Nthy-ori-3-1) or 10% (TT) fetal calf serum. One day after plating, different concentrations of Pz-1 or vehicle were added to the medium and changed every 2-3 days. Cells were counted every 2-3 days. […] Parental and RET/PTC-expressing Ba/F3 were kept in 10% fetal calf serum in 6-multi wells and counted every day for 4 consecutive days, changing media every 2 days. […] IC50 doses were calculated through a curve fitting analysis from the last day of growth curves using the PRISM software program (Graphpad Software Inc). […]

Another data set can be described thus: PK study in mice. The data set is classed as in vivo. The conditions noted are these: for half-life: mouse, in vivo. As to the method: For PK studies of Pz-1 in animals, a solution formulation for oral administration was created in 500 μL of polysorbate 80, 500 μL of EtOH, and 1.0 mL of pH 2 buffer. For the toxicity studies, a suspension formulation was developed in tween 20 (20%) and xanthan gum (0.125%).
T112 (3-4 hrs) in rats was in line with T1/2 in mice (4.2 hrs).

For data set [2], the target named is gatekeeper mutant RETV804M (Homo sapiens, UniProt P07949, V804M). In words: RET/V804M kinase assay. The conditions noted are these: biochemical assay; exact potency beyond measurable limit. On the procedure: as §1
gatekeeper mutant RETV804M, sequence (P07949 29-1114 V804M): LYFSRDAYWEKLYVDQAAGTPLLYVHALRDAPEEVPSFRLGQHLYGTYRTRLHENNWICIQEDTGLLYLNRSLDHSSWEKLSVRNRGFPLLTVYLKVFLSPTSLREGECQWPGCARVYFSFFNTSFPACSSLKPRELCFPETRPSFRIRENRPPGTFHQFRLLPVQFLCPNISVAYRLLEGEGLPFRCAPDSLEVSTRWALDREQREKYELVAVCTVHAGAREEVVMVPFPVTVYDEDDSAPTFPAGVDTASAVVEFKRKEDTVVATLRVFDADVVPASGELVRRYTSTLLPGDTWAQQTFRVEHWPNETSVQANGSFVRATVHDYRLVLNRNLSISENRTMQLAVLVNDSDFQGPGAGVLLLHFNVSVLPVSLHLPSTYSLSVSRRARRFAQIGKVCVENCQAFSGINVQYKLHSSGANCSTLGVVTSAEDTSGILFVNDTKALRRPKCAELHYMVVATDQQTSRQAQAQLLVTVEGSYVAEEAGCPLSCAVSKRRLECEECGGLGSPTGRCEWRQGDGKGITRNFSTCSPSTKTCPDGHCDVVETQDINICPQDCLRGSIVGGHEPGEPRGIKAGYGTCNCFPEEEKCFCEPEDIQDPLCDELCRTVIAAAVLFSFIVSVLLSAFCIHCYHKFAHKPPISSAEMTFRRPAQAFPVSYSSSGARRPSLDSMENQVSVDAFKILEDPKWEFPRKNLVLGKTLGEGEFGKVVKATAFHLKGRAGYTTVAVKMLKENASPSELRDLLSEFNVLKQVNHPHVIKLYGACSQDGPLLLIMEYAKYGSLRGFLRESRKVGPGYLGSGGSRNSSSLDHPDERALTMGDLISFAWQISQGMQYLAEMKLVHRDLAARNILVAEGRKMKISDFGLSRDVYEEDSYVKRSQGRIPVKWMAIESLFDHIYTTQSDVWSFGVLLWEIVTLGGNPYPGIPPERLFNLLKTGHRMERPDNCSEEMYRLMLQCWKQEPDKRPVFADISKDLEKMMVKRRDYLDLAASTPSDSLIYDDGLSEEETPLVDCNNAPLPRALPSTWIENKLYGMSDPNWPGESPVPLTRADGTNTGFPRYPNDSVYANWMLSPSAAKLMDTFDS
The subject of data set [3] is Ba/F3 cells transfected by RET/PTC3 (NCOA4-RET). Put plainly: IL-3-independent proliferation of Ba/F3 RET/PTC3 cells. The class given is cell-based, murine. The conditions noted are these: Mus musculus, BaF3. On the procedure: as §2, §3

VEGFR2, sequence (P35968 834-1162 limits assumed): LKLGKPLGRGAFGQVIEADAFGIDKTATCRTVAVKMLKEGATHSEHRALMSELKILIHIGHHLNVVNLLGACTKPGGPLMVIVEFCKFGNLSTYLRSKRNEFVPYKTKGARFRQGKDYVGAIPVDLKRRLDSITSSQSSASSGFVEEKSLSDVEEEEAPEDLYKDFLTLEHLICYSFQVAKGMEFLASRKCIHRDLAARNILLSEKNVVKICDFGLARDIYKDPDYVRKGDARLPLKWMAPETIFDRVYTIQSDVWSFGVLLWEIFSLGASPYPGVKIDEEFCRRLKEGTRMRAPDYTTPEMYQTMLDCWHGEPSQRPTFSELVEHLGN

As a reminder, the pIC50 is the IC50 on a negative log10 scale, so that one unit is a factor of ten. A lower pIC50 goes with a high IC50. Turning to `Cn1cc(-c2ccc3c(c2)ncn3-c2ccc(CC(=O)Nc3cc(C(C)(C)C)on3)cc2)cn1` [Pz-1, N-(5-(tert-butyl)isoxazol-3-yl)-2-(4-(5-(1-methyl-1H-pyrazol-4-yl)-1H-benzo[d]imidazol-1-yl)phenyl)acetamide], the pIC50 in data set [1] was 9.04; against VEGFR2, above 9.00; in data set [2] it was above 9.00; in data set [3], 9.47. Also, the inhibition of proliferation entry with parental Ba/F3 cells is listed as “inhibition of proliferation by Pz-1 for Ba/F3-NCOA4-RET but not parental Ba/F3”. The AUC in the data set “PK study in mice” (2 mg/kg, solution formulation) is 6.5 µg/h/mL. For the same compound, the half-life in “PK study in mice” (oral, read-out: T1/2 (converted)) was 4.2 h; in “PK study in mice” (po, 2 mg/kg, read-out: elimination half-life (converted)), 3.8 h.
